From PubChem BioAssay (NCI) come the findings set out here.

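These data come from cells grown in 96-well plates and exposed to compound for 48 hours at five concentrations. Definition used: TGI = concentration required for complete inhibition of growth.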

In the first assay the test system is SNB-19 CNS. The assay can be described thus: NCI anticancer screen, dose series, 48 h.
The molecule `Clc1ccc(C=Nc2ccc(Oc3ccc(Cl)cc3)c(Cl)c2)cc1` displayed a TGI of 56.2 µM.
In the case of `COC(=O)[C@H](Cc1ccccc1)NC(=O)c1ccc(CNC(=O)/C=C/c2csc(-c3ccccc3)n2)cc1`, the TGI came out at 39.6 µM.
On the same count and under the same terms, the same measure for `N#Cc1ccccc1OCCOc1ccccc1C#N`: above 100 µM; for `CCN(/C=C1/C(=O)C(c2ccccc2)N(c2ccccc2)C1=O)CC` (stereo unspecified): above 10 µM.
`O=[N+]([O-])c1ccc(/C=N/Nc2nc3ccccc3[nH]2)o1`: the TGI is above 100 µM.
On to `Cc1cccc2sc(NC(=O)NS(=O)(=O)n3cnc4ccccc43)nc12`, for which the TGI was above 100 µM.
Still for that read-out and setting: the same measure for `COC(=O)C1CCC(=O)N1CN(C(C)=O)c1cccc(O)c1` (stereo unspecified): above 100 µM; for `COc1ccc2nc3c(c(N)c2c1)C1CCC3C1(C)C` (stereo unspecified): above 100 µM; for `CCOC(=O)c1c(NC(=O)c2ccccc2)c(C#N)c2n1CCCCC2`: above 100 µM.
The same measure, in the same setting: for `Oc1c(N2CCCCC2)cc(-c2cc(N3CCCCC3)c(O)c3ccccc23)c2ccccc12` the value was above 100 µM.
Still for that read-out and setting: for `O=c1cc(Nc2cccc(O)c2)[nH]c(=O)[nH]1` the value was above 100 µM; for `C[C@H]1CC[C@@]2(OC1)O[C@H]1C[C@H]3[C@@H]4CC[C@@H]5C[C@@H](OC6OC(CO)C(O)C(O)C6OC6OC(CO)C(O)C(O)C6O)CC[C@]5(C)[C@H]4CC[C@]3(C)[C@H]1[C@@H]2C` (stereo partly specified), 3.9 µM.
For the molecule `O=C(Nn1c(-c2ccccc2)nc2ccccc2c1=O)c1ccc(Cl)cc1`, the TGI is above 100 µM.
`Cc1nc2sc3cccc(Cl)c3n2c(=O)c1N=Nc1ccc(Cl)cc1` displayed a TGI above 100 µM.
Same read-out and setting: the same measure for `Cc1cc(N(CCC#N)CCC#N)ccc1/C(N=Nc1ccccc1)=N\NC(=O)c1cc(Cl)ccc1O`: above 100 µM; for `CSC(=O)/C=C1\SS/C(=C\C(=O)SC)S1`: 20.7 µM.
Still for that read-out and setting: for `Cc1ccc(N=N/C(=N/NC(=O)c2ccccc2)c2ccc(N(CCC#N)CCC#N)cc2C)cc1` the value was above 100 µM; for `CCCCCCCCCCCCCCCCCCNc1ccn(C2OC(COP(=O)(O)OCC3OC(n4ccc(N)nc4=O)C(O)C3O)C(O)C2O)c(=O)n1` (stereo unspecified), above 100 µM; for `Cc1ccc(S[C@@](C=O)(NC(=O)OCc2ccccc2)C(F)(F)F)cc1`, 62.4 µM.
The same measure, in the same setting: the same measure for `CCOc1cnc(C(O)(c2ccccc2)c2ccccc2)o1`: above 100 µM; for `COC(CN(C)C(=S)Nc1cccc2ccccc12)OC`: above 10 µM.
On to `COc1ccc(CCCCNCc2cccc(CNCCCCc3ccc(OC)cc3)c2)cc1`, for which the TGI was found to be 3.29 µM.

The subject of a further assay is HS 578T breast. The assay can be described thus: NCI anticancer screen, dose series, 48 h.
On to `Clc1ccc(C=Nc2ccc(Oc3ccc(Cl)cc3)c(Cl)c2)cc1`, for which the TGI was 51.4 µM.
The same measure, in the same setting: for `COC(=O)[C@H](Cc1ccccc1)NC(=O)c1ccc(CNC(=O)/C=C/c2csc(-c3ccccc3)n2)cc1` the value was 58.1 µM; for `N#Cc1ccccc1OCCOc1ccccc1C#N`, above 100 µM; for `CCN(/C=C1/C(=O)C(c2ccccc2)N(c2ccccc2)C1=O)CC` (stereo unspecified), above 10 µM.
On the same count and under the same terms, the same measure for `O=[N+]([O-])c1ccc(/C=N/Nc2nc3ccccc3[nH]2)o1`: above 100 µM.
Same read-out and setting: for `Cc1cccc2sc(NC(=O)NS(=O)(=O)n3cnc4ccccc43)nc12` the value was 52.1 µM; for `COC(=O)C1CCC(=O)N1CN(C(C)=O)c1cccc(O)c1` (stereo unspecified), above 100 µM; for `COc1ccc2nc3c(c(N)c2c1)C1CCC3C1(C)C` (stereo unspecified), above 100 µM.
In the case of `CCOC(=O)c1c(NC(=O)c2ccccc2)c(C#N)c2n1CCCCC2`, the TGI is above 100 µM.
Turning to `Oc1c(N2CCCCC2)cc(-c2cc(N3CCCCC3)c(O)c3ccccc23)c2ccccc12`, the TGI turned out to be 72.6 µM.
In the case of `O=c1cc(Nc2cccc(O)c2)[nH]c(=O)[nH]1`, the TGI was above 100 µM.
The molecule `C[C@H]1CC[C@@]2(OC1)O[C@H]1C[C@H]3[C@@H]4CC[C@@H]5C[C@@H](OC6OC(CO)C(O)C(O)C6OC6OC(CO)C(O)C(O)C6O)CC[C@]5(C)[C@H]4CC[C@]3(C)[C@H]1[C@@H]2C` (stereo partly specified) came in with a TGI of 4.47 µM.
Same read-out and setting: for `O=C(Nn1c(-c2ccccc2)nc2ccccc2c1=O)c1ccc(Cl)cc1` the value was above 100 µM.
Still for that read-out and setting: for `Cc1nc2sc3cccc(Cl)c3n2c(=O)c1N=Nc1ccc(Cl)cc1` the value was above 100 µM.
On the same count and under the same terms, the same measure for `Cc1cc(N(CCC#N)CCC#N)ccc1/C(N=Nc1ccccc1)=N\NC(=O)c1cc(Cl)ccc1O`: 80.2 µM; for `CSC(=O)/C=C1\SS/C(=C\C(=O)SC)S1`: 13.8 µM.
The molecule `Cc1ccc(N=N/C(=N/NC(=O)c2ccccc2)c2ccc(N(CCC#N)CCC#N)cc2C)cc1` had a TGI of 46.9 µM.
The same measure, in the same setting: the same measure for `CCCCCCCCCCCCCCCCCCNc1ccn(C2OC(COP(=O)(O)OCC3OC(n4ccc(N)nc4=O)C(O)C3O)C(O)C2O)c(=O)n1` (stereo unspecified): above 100 µM; for `Cc1ccc(S[C@@](C=O)(NC(=O)OCc2ccccc2)C(F)(F)F)cc1`: above 100 µM; for `CCOc1cnc(C(O)(c2ccccc2)c2ccccc2)o1`: above 100 µM.
`COC(CN(C)C(=S)Nc1cccc2ccccc12)OC` yielded a TGI above 10 µM.
As for `COc1ccc(CCCCNCc2cccc(CNCCCCc3ccc(OC)cc3)c2)cc1`, the TGI came to 3.27 µM.

In another assay the test system is HCT-116 colon. Nature of the assay: NCI anticancer screen, dose series, 48 h.
In the case of `Clc1ccc(C=Nc2ccc(Oc3ccc(Cl)cc3)c(Cl)c2)cc1`, the TGI amounted to 36.2 µM.
Regarding `COC(=O)[C@H](Cc1ccccc1)NC(=O)c1ccc(CNC(=O)/C=C/c2csc(-c3ccccc3)n2)cc1`, the TGI is above 51.7 µM.
In turn, `N#Cc1ccccc1OCCOc1ccccc1C#N` yielded a TGI above 100 µM.
Same read-out and setting: for `CCN(/C=C1/C(=O)C(c2ccccc2)N(c2ccccc2)C1=O)CC` (stereo unspecified) the value was above 10 µM.
On the same count and under the same terms, for `O=[N+]([O-])c1ccc(/C=N/Nc2nc3ccccc3[nH]2)o1` the value was 36.7 µM; for `Cc1cccc2sc(NC(=O)NS(=O)(=O)n3cnc4ccccc43)nc12`, 99.3 µM; for `COC(=O)C1CCC(=O)N1CN(C(C)=O)c1cccc(O)c1` (stereo unspecified), above 100 µM.
With `COc1ccc2nc3c(c(N)c2c1)C1CCC3C1(C)C` (stereo unspecified), the TGI is above 100 µM.
For `CCOC(=O)c1c(NC(=O)c2ccccc2)c(C#N)c2n1CCCCC2`, the TGI is above 100 µM.
The molecule `Oc1c(N2CCCCC2)cc(-c2cc(N3CCCCC3)c(O)c3ccccc23)c2ccccc12` gave a TGI of 40.7 µM.
On the same count and under the same terms, the same measure for `O=c1cc(Nc2cccc(O)c2)[nH]c(=O)[nH]1`: above 100 µM.
Still for that read-out and setting: for `C[C@H]1CC[C@@]2(OC1)O[C@H]1C[C@H]3[C@@H]4CC[C@@H]5C[C@@H](OC6OC(CO)C(O)C(O)C6OC6OC(CO)C(O)C(O)C6O)CC[C@]5(C)[C@H]4CC[C@]3(C)[C@H]1[C@@H]2C` (stereo partly specified) the value was 3.7 µM.
Molecule `O=C(Nn1c(-c2ccccc2)nc2ccccc2c1=O)c1ccc(Cl)cc1` returned a TGI above 100 µM.
Same read-out and setting: for `Cc1nc2sc3cccc(Cl)c3n2c(=O)c1N=Nc1ccc(Cl)cc1` the value was above 100 µM.
Still for that read-out and setting: for `Cc1cc(N(CCC#N)CCC#N)ccc1/C(N=Nc1ccccc1)=N\NC(=O)c1cc(Cl)ccc1O` the value was 36.7 µM; for `CSC(=O)/C=C1\SS/C(=C\C(=O)SC)S1`, 3.29 µM.
On the same count and under the same terms, for `Cc1ccc(N=N/C(=N/NC(=O)c2ccccc2)c2ccc(N(CCC#N)CCC#N)cc2C)cc1` the value was above 100 µM; for `CCCCCCCCCCCCCCCCCCNc1ccn(C2OC(COP(=O)(O)OCC3OC(n4ccc(N)nc4=O)C(O)C3O)C(O)C2O)c(=O)n1` (stereo unspecified), above 100 µM; for `Cc1ccc(S[C@@](C=O)(NC(=O)OCc2ccccc2)C(F)(F)F)cc1`, 36.7 µM.
Take `CCOc1cnc(C(O)(c2ccccc2)c2ccccc2)o1`: the TGI was above 100 µM.
On to `COC(CN(C)C(=S)Nc1cccc2ccccc12)OC`, for which the TGI is above 10 µM.
Same read-out and setting: for `COc1ccc(CCCCNCc2cccc(CNCCCCc3ccc(OC)cc3)c2)cc1` the value was 3.88 µM.
